Results published in patent US20030176368A1, “Synthesis of epothilones, intermediates thereto and analogues thereof” (priority 2001, published 2003).
Where two headings read alike, the source gives them in different places.

Columns and labels:
CCRF-CEM = experiment: XTT cytotoxicity assay, CCRF-CEM cells; assay type: cell-based, human; conditions: for activity in CCRF-CEM cell lines: Example 12, in words
Experimental: (§1) XTT assay following 72 h inhibition. CCRF-CEM is a human T-cell acute lymphoblastic leukemia cell line. The CCRF-CEM/VBL100, CCRF-CEM/VM1, and CCRF-CEM/Taxol cell lines all overexpress P-glycoprotein and display a multidrug resistance phenotype to MDR-associated oncolytics. (Chou et al. Proc. Natl. Acad. Sci. USA 98:8113, 2001; incorporated herein by reference).
(§2) A typical experiment invovles culturing cells (e.g., CCRF-CEM) at an initial density of 2-5×10^4 cells per ml. They are maintained in a 5% CO2-humidified atmosphere at 37° C. in RPMI medium 1640 (GIBCO/BRL) containing penicillin (100 units/ml), streptomycin (100 μg/ml) (GIBCO/BRL), and 5% heat-inactivated fetal bovine serum. For cells that were grown in suspension (such as CCRF-CEM and its sublines), cytotoxicitiy is measured by using the 2,-3-bis(2-methoxy-4-nitro-5-sulfophenyl)-5 carboxanilide)-2H terazodium hydroxide (XTT)-microculture tetrazonium method in duplicate in 96-well microtiter plates. For both methods, the absorbance of each well is measured with a microplate reader (EL-340, Bio-Tek, Burlington, Vt.). Each run entails six or seven concentrations of the tested drugs. Dose-effect relationship data are analyzed with the median-effect plot.
(§3) The CCRF-CEM human T cells, acute lymphoblastic leukemic cells, its teniposide-resistant subline (CCRF-CEM/VM1) and vinblastine-resistant subline (CCRF-CEM/VBL100) are obtained from W. T. Beck (University of Illinois, Chicago, Ill.).

CCRF-CEM/Taxol = experiment: XTT cytotoxicity assay, taxol-resistant CCRF-CEM/Taxol cells; assay type: cell-based, human; conditions: for activity in CCRF-CEM cell lines resistant to Taxol: Example 12, in words
Experimental: as §1, §2

CCRF-CEM/VM1 = experiment: XTT cytotoxicity assay, teniposide-resistant CCRF-CEM/VM1 cells; assay type: cell-based, human
Experimental: as §1, §2, §3

CCRF-CEM/VBL100 = experiment: XTT cytotoxicity assay, vinblastine-resistant CCRF-CEM/VBL100 cells; assay type: cell-based, human
Experimental: as §1, §2, §3

tubulin = experiment: Tubulin binding: formation of microtubules in the presence of the compounds; assay type: biochemical
Text: Indeed, the microtubule stabilizing ability closely parallels the observed cytotoxicity data.

[1] = Example 6 table, XTT assay following 72 h inhibition, read-out: CCRF-CEM (IC50 (μM))
[2] = XTT assay following 72 h inhibition, read-out: In vitro Cytotoxicities (IC50) CCRF-CEM
[3] = XTT assay following 72 h inhibition, read-out: In vitro Cytotoxicities (IC50) CCRF-CEM/Taxol
[4] = XTT assay following 72 h inhibition, read-out: In vitro Cytotoxicities (IC50) CCRF-CEM/VM1
[5] = Example 6 table, XTT assay following 72 h inhibition, read-out: CCRF-CEM/VBL (IC50 (μM))
[6] = XTT assay following 72 h inhibition, read-out: In vitro Cytotoxicities (IC50) CCRF-CEM/VBL100
[7] = Homo sapiens, CCRF-CEM, Example 5 Table 1, 72 h inhibition, read-out: In vitro Cytotoxicities (IC50) CCRF-CEM(C)
[8] = Homo sapiens, CCRF-CEM, Example 5 Table 1, 72 h inhibition, read-out: In vitro Cytotoxicities (IC50) C/Taxol
[9] = Homo sapiens, CCRF-CEM, Example 5 Table 1, 72 h inhibition, read-out: In vitro Cytotoxicities (IC50) C/VM1
[10] = Homo sapiens, CCRF-CEM, Example 5 Table 1, 72 h inhibition, read-out: In vitro Cytotoxicities (IC50) C/VBL100
[11] = Homo sapiens, CCRF-CEM, Example 11 Table 2, XTT assay following 72-h inhibition, read-out: In Vitro Cytotoxicities (IC50) CCRF-CEM
[12] = Homo sapiens, CCRF-CEM, Example 11 Table 2, XTT assay following 72-h inhibition, read-out: In Vitro Cytotoxicities (IC50) CCRF-CEM/TAXOL
[13] = Microtubules formed in the presence of dEpoB is defined as 100%
[14] = Homo sapiens, CCRF-CEM, Example 11 Table 2, XTT assay following 72-h inhibition, read-out: In Vitro Cytotoxicities (IC50) CCRF-CEM/VMI
[15] = Homo sapiens, CCRF-CEM, Example 11 Table 2, XTT assay following 72-h inhibition, read-out: In Vitro Cytotoxicities (IC50) CCRF-CEM/VBL100

Compound: 10,11-dehydro-12,13-desoxyepothilone B [Epo490]
- IC50 (CCRF-CEM; [1]): 0.02 µM
- IC50 (CCRF-CEM; [2]): 0.025 µM
- IC50 (CCRF-CEM/Taxol; [3]): 32 nM
- IC50 (CCRF-CEM/VM1; [4]): 35 nM
- IC50 (CCRF-CEM/VBL100; [5]): 0.068 µM
- IC50 (CCRF-CEM/VBL100; [6]): 0.091 µM

Compound: 10,11-dehydro-14,15-[18]desoxyepothilone B [[18]ddEpoB]
- % Tubulin Binding (tubulin; Example 5 Table 1): 51%

Compound: C/C1=C/C[C@@H](/C(C)=C/c2csc(C)n2)OC(=O)C[C@H](O)C(C)(C)C(=O)[C@H](C)[C@@H](O)[C@@H](C)CC2OC(C)(C)OC12 (stereo partly shown) [10, 11-ketal-dEpoB]
- activity in CCRF-CEM cell lines (CCRF-CEM): demonstrated activity
- activity in CCRF-CEM cell lines resistant to Taxol (CCRF-CEM/Taxol): demonstrated activity

Compound: C/C1=C/C[C@@H](/C(C)=C/c2csc(C)n2)OC(=O)C[C@H](O)C(C)(C)C(=O)[C@H](C)[C@@H](O)[C@@H](C)C[C@@H](O)[C@@H]1O [12 (dihydroxy)]
- IC50 (CCRF-CEM; [7]): 1 µM
- IC50 (CCRF-CEM/Taxol; [8]): 16800 nM
- % Tubulin Binding (tubulin; Example 5 Table 1): 31%
- IC50 (CCRF-CEM/VM1; [9]): 2350 nM
- IC50 (CCRF-CEM/VBL100; [10]): 99 µM

Compound: C/C1=C\[C@@H]2C[C@H](C)[C@H](O2)[C@@H](C)C(=O)C(C)(C)[C@@H](O)CC(=O)O[C@H](/C(C)=C/c2csc(C)n2)CC1O (stereo partly shown) [13 (THF macrocycle)]
- IC50 (CCRF-CEM; [7]): 0.761 µM
- IC50 (CCRF-CEM/Taxol; [8]): 4240 nM
- % Tubulin Binding (tubulin; Example 5 Table 1): inactive
- IC50 (CCRF-CEM/VBL100; [10]): 8.76 µM

Compound: C/C1=C/C[C@@H](/C(C)=C/c2csc(C)n2)OC(=O)C[C@H](O)C(C)(C)C(=O)[C@H](C)[C@@H](O)[C@@H](C)CC2CC12 (stereo partly shown) [15 (cyclopropyl)]
- IC50 (CCRF-CEM; [7]): 0.077 µM
- % Tubulin Binding (tubulin; Example 5 Table 1): 84%
- IC50 (CCRF-CEM/VBL100; [10]): 0.141 µM

Compound: CC1=C/C[C@@H](/C(C)=C/c2coc(C)n2)OC(=O)C[C@H](O)C(C)(C)C(=O)[C@H](C)[C@@H](O)[C@@H](C)C\C=C\1 [19-oxa epothilone 490]
- IC50 (CCRF-CEM; Homo sapiens, CCRF-CEM, Example 9 table, read-out: Cell Growth Inhibition (IC50) CCRF-CEM): 0.015 µM
- IC50 (CCRF-CEM/Taxol; Homo sapiens, CCRF-CEM, Example 9 table, read-out: Cell Growth Inhibition (IC50) CCRF-CEM/taxol): 40 nM
- IC50 (CCRF-CEM/VBL100; Homo sapiens, CCRF-CEM, Example 9 table, read-out: Cell Growth Inhibition (IC50) CCRF-CEM/VBL): 0.06 µM

Compound: CC1=C/C[C@@H](/C(C)=C/c2csc(CO)n2)OC(=O)C[C@H](O)C(C)(C)C(=O)[C@H](C)[C@@H](O)[C@@H](C)C\C=C\1 [Compound 21-OH-Epo490]
- activity in CCRF-CEM cell lines (CCRF-CEM): demonstrated activity
- IC50 (CCRF-CEM; [7]): 0.03 µM
- IC50 (CCRF-CEM; [11]): 0.03 µM
- activity in CCRF-CEM cell lines resistant to Taxol (CCRF-CEM/Taxol): demonstrated activity
- IC50 (CCRF-CEM/Taxol; [8]): 51 nM
- IC50 (CCRF-CEM/Taxol; [12]): 51 nM
- % Tubulin Binding (tubulin; Example 5 Table 1): 77%
- % Tubulin Binding (tubulin; [13]): 77%
- IC50 (CCRF-CEM/VM1; [9]): 61 nM
- IC50 (CCRF-CEM/VM1; [14]): 61 nM
- IC50 (CCRF-CEM/VBL100; [10]): 0.202 µM
- IC50 (CCRF-CEM/VBL100; [15]): 0.202 µM

Compound: C/C(=C\c1csc(C)n1)[C@@H]1C/C=C(/CF)CCC[C@H](C)[C@H](O)[C@@H](C)C(=O)C(C)(C)[C@@H](O)CC(=O)O1 [Compound 26F-EpoD]
- activity in CCRF-CEM cell lines (CCRF-CEM): demonstrated activity
- IC50 (CCRF-CEM; Example 12, read-out: activity for CCRF-CEM cell lines): ~0.0015 µM
- activity in CCRF-CEM cell lines resistant to Taxol (CCRF-CEM/Taxol): demonstrated activity
- IC50 (CCRF-CEM/Taxol; Example 12, read-out: activity for CCRF-CEM/Taxol resistant cell lines): ~11 nM

Compound: CC(=O)O[C@H]1C(=O)[C@@]2(C)[C@H]([C@H](OC(=O)c3ccccc3)[C@]3(O)C[C@H](OC(=O)[C@H](O)[C@@H](NC(=O)c4ccccc4)c4ccccc4)C(C)=C1C3(C)C)[C@]1(OC(C)=O)CO[C@@H]1C[C@@H]2O [Taxol, paclitaxel, reference compound]
- IC50 (CCRF-CEM; [11]): 0.0021 µM
- IC50 (CCRF-CEM/Taxol; [12]): 81 nM
- IC50 (CCRF-CEM/VM1; [14]): 3 nM
- IC50 (CCRF-CEM/VBL100; [15]): 0.827 µM

Compound: CC1=CCC(C(C)=Cc2csc(C)n2)OC(=O)CC(O)C(C)(C)C(=O)C(C)C(O)C(C)CC=CC1 (stereo not shown) [[17]ddEpoB, 10,11-dehydro-13,14-[17]desoxyepothilone B]
- IC50 (CCRF-CEM; [1]): 0.04 µM
- IC50 (CCRF-CEM; Example 12, growth inhibition, read-out: activity, CCRF-CEM tumor cell lines): ~0.051 µM
- IC50 (CCRF-CEM; [2]): 0.04 µM
- IC50 (CCRF-CEM/Taxol; Example 12, growth inhibition, read-out: activity, CCRF-CEM/Taxol resistant cell lines): ~49 nM
- IC50 (CCRF-CEM/Taxol; [3]): 53 nM
- % Tubulin Binding (tubulin; Example 5 Table 1): 94%
- IC50 (CCRF-CEM/VM1; Example 12, growth inhibition, read-out: activity, CCRF-CEM/VM1 resistant cell lines): ~55 nM
- IC50 (CCRF-CEM/VM1; [4]): 55 nM
- IC50 (CCRF-CEM/VBL100; [5]): 0.126 µM
- IC50 (CCRF-CEM/VBL100; Example 12, growth inhibition, read-out: activity, CCRF-CEM/VBL100 resistant cell lines): ~0.137 µM
- IC50 (CCRF-CEM/VBL100; [6]): 0.126 µM

Compound: C/C1=C/C[C@@H](/C(C)=C/c2csc(C)n2)OC(=O)C[C@H](O)C(C)(C)C(=O)[C@H](C)[C@@H](O)[C@@H](C)CCC1 [dEpoB, 12,13-desoxyepothilone B, reference compound]
- IC50 (CCRF-CEM; Homo sapiens, CCRF-CEM, 72 h, read-out: In Vitro Cytotoxicities (IC50) CCRF-CEM): 0.011 µM
- IC50 (CCRF-CEM; Homo sapiens, CCRF-CEM, 72 h, read-out: In vitro Cytotoxicities (IC50) CCRF-CEM): 0.011 µM
- IC50 (CCRF-CEM; Homo sapiens, CCRF-CEM, 72 h, read-out: In vitro Cytotoxicities (IC50) CCRF-CEM(C)): 0.011 µM
- IC50 (CCRF-CEM/Taxol; Homo sapiens, CCRF-CEM, 72 h, read-out: In Vitro Cytotoxicities (IC50) CCRF-CEM/TAXOL): 7 nM
- IC50 (CCRF-CEM/Taxol; Homo sapiens, CCRF-CEM, 72 h, read-out: In vitro Cytotoxicities (IC50) C/Taxol): 7 nM
- IC50 (CCRF-CEM/Taxol; Homo sapiens, CCRF-CEM, 72 h, read-out: In vitro Cytotoxicities (IC50) CCRF-CEM/Taxol): 7 nM
- % Tubulin Binding (tubulin; Example 5 Table 1): 100%
- % Tubulin Binding (tubulin; [13]): 100%
- IC50 (CCRF-CEM/VM1; Homo sapiens, CCRF-CEM, 72 h, read-out: In Vitro Cytotoxicities (IC50) CCRF-CEM/VMI): 16 nM
- IC50 (CCRF-CEM/VM1; Homo sapiens, CCRF-CEM, 72 h, read-out: In vitro Cytotoxicities (IC50) C/VM1): 16 nM
- IC50 (CCRF-CEM/VM1; Homo sapiens, CCRF-CEM, 72 h, read-out: In vitro Cytotoxicities (IC50) CCRF-CEM/VM1): 16 nM
- IC50 (CCRF-CEM/VBL100; Homo sapiens, CCRF-CEM, 72 h, read-out: In Vitro Cytotoxicities (IC50) CCRF-CEM/VBL100): 0.015 µM
- IC50 (CCRF-CEM/VBL100; Homo sapiens, CCRF-CEM, 72 h, read-out: In vitro Cytotoxicities (IC50) C/VBL100): 0.015 µM
- IC50 (CCRF-CEM/VBL100; Homo sapiens, CCRF-CEM, 72 h, read-out: In vitro Cytotoxicities (IC50) CCRF-CEM/VBL100): 0.015 µM

Compound: CC[C@]1(O)C[C@@H]2CN(CCc3c([nH]c4ccccc34)[C@@](C(=O)OC)(c3cc4c(cc3OC)N(C)[C@H]3[C@@](O)(C(=O)OC)[C@H](OC(C)=O)[C@]5(CC)C=CCN6CC[C@]43[C@@H]65)C2)C1 [vinblastine, reference compound]
- IC50 (CCRF-CEM; [11]): 0.0008 µM
- IC50 (CCRF-CEM/Taxol; [12]): 18 nM
- IC50 (CCRF-CEM/VM1; [14]): 1.4 nM
- IC50 (CCRF-CEM/VBL100; [15]): 0.122 µM
